The results in this text go back to patent publication US20260207621A1 (Vividion Therapeutics, Inc., priority 2022, published 2026).

One experiment relates to Nrf2. The experiment in a line: Nrf2 antagonism assay: ARE luciferase reporter in KYSE-70 cells. It counts as cell-based. The conditions noted are these: positive Imax corresponds to Nrf2 antagonism; for KYSE70 Cellular ARE Luciferase Imax (%): KYSE-70 cells; for Emax: Homo sapiens, KYSE-70, KYSE-70 cells, read-out: KYSE70 Cellular ARE Luciferase Imax (%). In short, it runs like this:
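KYSE-70 esophageal squamous carcinoma cells carrying Nrf2 W24C (constitutively Nrf2-high) with an ARE-driven luciferase reporter. Loss of luciferase signal reflects Nrf2 antagonism via KEAP1 C151 engagement. IC50 and Imax come from dose-response curves; positive Imax means antagonism.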

For another experiment, the target named is T1, KEAP1 C151 (Homo sapiens, UniProt Q14145).
T1 construct: treating 500 μg of cell lysate generated from MDA-MB-468 breast cancer cells with DMSO or compound; endogenous in cells; host or cells: MDA-MB-468 breast cancer cell lysate
T1 sequence (Q14145 whole entry): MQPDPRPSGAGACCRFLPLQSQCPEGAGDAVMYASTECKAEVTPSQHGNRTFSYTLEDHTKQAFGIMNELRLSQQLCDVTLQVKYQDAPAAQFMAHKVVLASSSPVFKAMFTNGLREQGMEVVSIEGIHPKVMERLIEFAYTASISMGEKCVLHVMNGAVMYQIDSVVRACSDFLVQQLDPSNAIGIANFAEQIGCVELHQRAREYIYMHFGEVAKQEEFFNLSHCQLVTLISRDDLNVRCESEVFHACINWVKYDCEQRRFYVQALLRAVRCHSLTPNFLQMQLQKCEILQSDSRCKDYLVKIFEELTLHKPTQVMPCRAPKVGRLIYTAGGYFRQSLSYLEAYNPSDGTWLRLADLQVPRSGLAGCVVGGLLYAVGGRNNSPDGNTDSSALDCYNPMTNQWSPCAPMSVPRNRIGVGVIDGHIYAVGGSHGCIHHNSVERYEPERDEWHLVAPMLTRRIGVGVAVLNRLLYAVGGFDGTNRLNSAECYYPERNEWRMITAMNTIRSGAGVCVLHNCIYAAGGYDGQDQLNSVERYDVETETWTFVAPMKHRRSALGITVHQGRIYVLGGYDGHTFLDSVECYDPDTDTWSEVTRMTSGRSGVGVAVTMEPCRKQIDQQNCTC
The experiment in a line: Nrf2 TMT measurement: in vitro TE50 for KEAP1 C151 (IA-DTB competition, targeted TMT mass spectrometry) in MDA-MB-468 cell lysate. The conditions noted are these: in vitro target engagement of KEAP1 C151, targeted TMT, read-out: KEAP1_C151 TE50. It counts as binding. The essentials: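 MDA-MB-468 lysate (500 μg) treated with compound for 1 h at room temperature, then 200 μM IA-DTB for 1 h. Labeled peptides streptavidin-enriched after trypsin digest, TMT-labeled and quantified by targeted MS3 on the KEAP1 C151 peptide. IC50 from dose-response curve fitting.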

As to `C=CC(=O)N1CCOC[C@H]1c1cc(Cl)cc(C2CNC(=S)CO2)c1` (single isomer, unassigned) [Compound 240], the “KYSE70 Cellular ARE Luciferase Imax (%)” value in the experiment with Nrf2 is reported as 61%. Moreover, on KEAP1 C151, the IC50 was found to be 150 nM.
For `C=CC(=O)N1CCOC[C@H]1c1cc(Cl)cc(C2CNC(=S)CO2)c1` (single isomer, unassigned) [Compound 241], the “KYSE70 Cellular ARE Luciferase Imax (%)” value in the experiment with Nrf2 came out at 87%. Further, the IC50 on KEAP1 C151 came out at 170 nM.
With `C=CC(=O)N1CCOC[C@H]1c1cc(Cl)cc(C2CCNC(=O)N2)c1` (single isomer, unassigned) [Compound 242], in the experiment with Nrf2, the Emax was 59%. Moreover, on KEAP1 C151, the IC50 turned out to be 250 nM.
Turning to `C=CC(=O)N1C[C@@H](C)N(C(=O)C2CC2)C[C@@H]1c1cc(Cl)cc(-c2ncc(N)cn2)c1` (single isomer, unassigned) [Compound 243], the Emax in the experiment with Nrf2 worked out at 88%. Moreover, the IC50 on KEAP1 C151 came to 22 nM.
For `C=CC(=O)N1CCOC[C@H]1c1cc(Cl)cc(N2CCN=C(N)C2)c1` (single isomer, unassigned) [Compound 244] the same measures were 81% and 150 nM.
In the same order, the values of `C=CC(=O)N1C[C@@H](C)N(C(=O)C2CC2)C[C@H]1c1cc(Cl)cc(-c2ncc(N)cn2)c1` (single isomer, unassigned) [Compound 245] are 53% and 90 nM.
With `C=CC(=O)N1CC(C)(C)S(=O)(=O)CC1c1cc(Cl)cc(-c2nccc(N)n2)c1` (single isomer, unassigned) [Compound 246, 1-(5-(3-(4-aminopyrimidin-2-yl)-5-chlorophenyl)-2,2-dimethyl-1,1-dioxidothiomorpholino)prop-2-en-1-one], in the experiment with Nrf2, the Emax worked out at 90%. Moreover, at KEAP1 C151, the IC50 came out at 43 nM.
Take `C=CC(=O)N1CCC(F)(F)CC1c1cc(Cl)cc(-c2ncc(N)cn2)c1` (single isomer, unassigned) [Compound 247, 1-(2-(3-(5-aminopyrimidin-2-yl)-5-chlorophenyl)-4,4-difluoropiperidin-1-yl)prop-2-en-1-one]: the Emax with Nrf2 came to 91%. Also, the IC50 at KEAP1 C151 turned out to be 16 nM.
In the case of `C=CC(=O)N1CCOC[C@H]1c1cc(Cl)cc(-c2ncc(NC(C)=O)cn2)c1` (single isomer, unassigned) [Compound 248], the Emax in the experiment with Nrf2 came to 89%. Also, the IC50 on KEAP1 C151 came out at 10 nM.
For `C=CC(=O)N1CC2(CC2)S(=O)(=O)CC1c1cc(Cl)cc(-c2nccc(N)n2)c1` (single isomer, unassigned) [Compound 249, 1-(6-(3-(4-aminopyrimidin-2-yl)-5-chlorophenyl)-4,4-dioxido-4-thin-7-azaspiro[2.5]octan-7-yl)prop-2-en-1-one] the same measures were 89% and 5.3 nM.
`C=CC(=O)N1CCOC[C@H]1c1cc(Cl)cc(-c2cncc(N)n2)c1` (single isomer, unassigned) [Compound 250]: the Emax with Nrf2 was 92%. Further, the IC50 at KEAP1 C151 turned out to be 36 nM.
For `C=CC(=O)N1CCOC[C@H]1c1cc(Cl)cc(-c2cnc(N)cn2)c1` (single isomer, unassigned) [Compound 251] the same measures were 93% and 17 nM.
For the molecule `C=CC(=O)N1CCOC[C@H]1c1cc(Cl)cc(-c2ncc(N)c(OC)n2)c1` (single isomer, unassigned) [Compound 254], the Emax in the experiment with Nrf2 is 92%. The IC50 at KEAP1 C151 was 86 nM.
In the same order, the values of `C=CC(=O)N1CCOC[C@H]1c1cc(Cl)cc(-c2cnc(N)c(OC)n2)c1` (single isomer, unassigned) [Compound 255] are 93% and 50 nM.
In the same order, the values of `C=CC(=O)N1CCOC[C@H]1c1cc(Cl)cc(-c2nccc(NC(C)=O)n2)c1` (single isomer, unassigned) [Compound 256] are 63% and 86 nM.
For the molecule `C=CC(=O)N1CCOC[C@H]1c1cc(Cl)cc(-c2cnc(N)c(N)n2)c1` (single isomer, unassigned) [Compound 258], the Emax in the experiment with Nrf2 came out at 93%. At KEAP1 C151, the IC50 came to 16 nM.
